# Patent publication US8383577B2 (Endo Pharmaceuticals Solutions, Inc., priority 2008, dated 2013)
# What was measured:
# [1] = cited from earlier work; for CMC: critical micelle concentration; for HLB: hydrophilic-lipophilic balance
# [2] = Formulation study: effect of excipient on implant shape and durability (Example 3); format: physicochemical; details: cartridges about 28% HEMA, about 66.5% HPMA, 5% glycerin
# Description: A series of implants was monitored to determine the effect of excipient on implant shape and durability. Each of the polymer cartridges was composed of about 28% HEMA, about 66.5% HPMA and 5% glycerin.
# GH = details: following a subcutaneous octreotide injection; cited from earlier work
# IGF-1 = details: acromegaly patients on octreotide; cited from earlier work
Compound,CMC [1],HLB [1],stabilization of the octreotide implant by excipient [2],other results
CCCCCCCC/C=C\CCCCCCCC(=O)OCCOCC(OCCO)C1OCC(OCCO)C1OCCO (stereo not shown) [Tween 80],0.012 mM,15,–,–
O=C(O)CO [glycolic acid],–,–,did not provide a stabilizing effect and resulted in a decrease in integrity,–
OC[C@@H](O)[C@@H](O)[C@H](O)[C@H](O)CO [mannitol],–,–,did not provide a stabilizing effect and resulted in a decrease in integrity,–
"L-cysteinamide, D-phenylalanyl-L-cysteiny-L-phenylalanyl-D-tryptophyl-L-lysyl-L-threonyl-N-[2-hydroxy-1-(hydroxymethyl)propyl]-, cyclic(2→7)-disulfide; [Octreotide, L-cysteinamide, D-phenylalanyl-L-cysteiny-L-phenylalanyl-D-tryptophyl-L-lysyl-L-threonyl-N-[2-hydroxy-1-(hydroxymethyl)propyl]-, cyclic(2→7)-disulfide; [R-(R*,R*)]]",–,–,–,time to GH level decrease (GH): usually decrease within two hours; patients with normalization of IGF-1 levels (IGF-1): up to 60 % of patients
Sucrose monolaurate,0.2 mM,~8,–,–
Triton X-100,0.2 to 0.9 mM,13.5,–,–
